Assay results published in ChEMBL document CHEMBL4330075, “Discovery of Novel Quinoline-Chalcone Derivatives as Potent Antitumor Agents with Microtubule Polymerization Inhibitory Activity” (J Med Chem, 2019).
In brackets after ≈: the same amount, converted by molar mass.

Assays:
K562 = assay: Antiproliferative activity against human K562 cells after 72 hrs by MTT assay; format: functional, cell-based; conditions: K562, 72 h
KB = assay: Antiproliferative activity against human KB cells after 72 hrs by MTT assay; format: functional, cell-based
HCT-8 = assay: Antiproliferative activity against human HCT8 cells after 72 hrs by MTT assay; format: functional, cell-based; conditions: HCT-8, 72 h
MDA-MB-231 = assay: Antiproliferative activity against human MDA-MB-231 cells after 72 hrs by MTT assay; format: functional, cell-based; conditions: MDA-MB-231, 72 h
HepG2 = assay: cells; conditions: Homo sapiens, HepG2, 72 h
[1] = Aqueous solubility in pH 7.4 phosphate buffer by HPLC analysis; format: physicochemical
[2] = Antitumor activity against […] H22 cells xenografted in ICR mouse assessed as reduction in tumor weight at 20 mg/kg, iv qd for 21 consecutive days and measured every 2 days relative to control; format: functional; parameters: scale not given: the % may be the effect or the level left
[3] = Toxicity in ICR mouse xenografted with […] cells assessed as decrease in body weight at 10 to 20 mg/kg, iv qd administered for 21 days and measured every 2 days; format: organism-based; conditions: in vivo
L02 = assay: Cytotoxicity against human LO2 cells after 72 hrs by MTT assay; format: cell-based; conditions: L02, 72 h
[4] = Selectivity index, ratio of IC50 for human LO2 cells to IC50 for human HepG2 cells; format: toxicity; conditions: LO2 cells and HepG2 cells, read-out: Ratio IC50
[5] = Antitumor activity against […] H22 cells xenografted in ICR mouse assessed as reduction tumor weight at 8 mg/kg, iv administered every 2 days for 21 days and measured every 2 days relative to control; format: functional
[6] = Toxicity in ICR mouse xenografted with […] cells assessed as decrease in body weight at 8 mg/kg, iv administered every 2 days for 21 days and measured every 2 days; format: organism-based; conditions: in vivo

Row | Structure (SMILES) | IC50 (K562) [nM] | IC50 (KB) [nM] | IC50 (HCT-8) [nM] | IC50 (MDA-MB-231) [nM] | IC50 (HepG2) [nM] | further results
1 | COc1ccc(/C=C\c2cc(OC)c(OC)c(OC)c2)cc1O [COMBRETASTATIN A4] | 11 | – | – | – | – | –
2 | COc1ccc(/C=C(\C)C(=O)c2cc(CO)nc3ccccc23)cc1O | 50 | 231 | 242 | 209 | 165 | –
3 | COc1ccc(/C=C(\C)C(=O)c2cc(C)nc3ccccc23)cc1O.Cl | – | – | – | – | – | solubility [1]: > 1000 µg/mL; Activity [2]: 68.9%; Activity [3]: Non-Toxic
4 | COc1ccc2c(/C=C/C(=O)c3cc(C)nc4ccccc34)c[nH]c2c1 | > 1000 | – | – | – | – | –
5 | C/C(=C\c1cccc2[nH]ccc12)C(=O)c1cc(C)nc2ccccc12 | > 1000 | – | – | – | – | –
6 | COc1ccc(/C=C(\C)C(=O)c2cc(C)nc3ccccc23)cc1F | 69 | – | – | – | – | –
7 | COc1ccc(/C=C(\C)C(=O)c2cc(N3CCCC3)nc3ccccc23)cc1O | 315 | – | – | – | – | –
8 | CC(=O)O[C@H]1C(=O)[C@@]2(C)[C@H]([C@H](OC(=O)c3ccccc3)[C@]3(O)C[C@H](OC(=O)[C@H](O)[C@@H](NC(=O)c4ccccc4)c4ccccc4)C(C)=C1C3(C)C)[C@]1(OC(C)=O)CO[C@@H]1C[C@@H]2O [PACLITAXEL] | – | – | – | – | – | inhibition in vivo at 8 mg/kg [5]: 90.4%; Activity [6]: Toxic

The next lines start with results.

Row | IC50 (K562) [nM] | IC50 (KB) [nM] | IC50 (HCT-8) [nM] | IC50 (MDA-MB-231) [nM] | IC50 (HepG2) [nM] | Structure (SMILES) | further results
9 | 1060 | – | – | – | – | COc1ccc(/C=C(\C)C(=O)c2cc(C)nc3ccccc23)cc1OC | –
10 | 49 | 43 | 52 | 48 | 57 | COc1ccc(/C=C(\C)C(=O)c2cc(N(C)C)nc3ccccc23)cc1O | –
11 | 11 | 25 | 36 | 63 | 36 | COc1ccc(/C=C(\C)C(=O)c2cc(C)nc3ccccc23)cc1N | IC50 (L02): 923 nM; selectivity ratio [4]: 25.6
12 | 26 | 52 | 61 | 52 | 38 | COc1cc(C(=O)/C(C)=C/c2ccc(OC)c(O)c2)c2ccccc2n1 | IC50 (L02): 914 nM; selectivity ratio [4]: 24.1
13 | 74 | 124 | 135 | 220 | 111 | C/C(=C\c1ccc2c(ccn2C)c1)C(=O)c1cc(C)nc2ccccc12 | –
14 | 563 | – | – | – | – | CSc1ccc(/C=C(\C)C(=O)c2cc(C)nc3ccccc23)cc1 | –
15 | – | 108 | 104 | 102 | – | COc1ccc(/C=C/C(=O)c2cc(OC)c(OC)c(OC)c2)cc1O | solubility [1]: 3.2 µg/mL (≈ 9.29 µM)
16 | 15 | 26 | 37 | 30 | 24 | COc1ccc(/C=C(\C)C(=O)c2ccnc3ccccc23)cc1O | IC50 (L02): 928 nM; selectivity ratio [4]: 38.7
17 | 110 | – | – | – | – | COc1ccc(/C=C(\C)C(=O)c2cc(C=O)nc3ccccc23)cc1O | –
